Experimental data published in the supplement of paper PMC10307832.

What was measured:
Experiment in all cases: relative viability (nuclei count vs DMSO), 5 days (fraction); higher = more cells survive
[1] = compound: O=C(O)c1ccc2c(c1)nc(Nc1cccc(Cl)c1)c1ccncc12 [Silmitasertib] + C[C@]1(O)C[C@@H](c2nc(-c3ccc4ccc(-c5ccccc5)nc4c3)c3c(N)nccn32)C1 [Linsitinib] (partner 1 µM)
Method in brief: (§1)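 Dosing by pin tool came one day after lung cancer cell lines were seeded in 1536-well plates, using either one drug or a fixed anchor-drug dose plus five library-drug doses (not always all listed) in √10 steps. After 5 days, nuclei were counted on 4× images. Relative viability is treated-well nuclei count divided by vehicle-well nuclei count, and values are medians of duplicate plates.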

[2] = compound: O=C(O)c1ccc2c(c1)nc(Nc1cccc(Cl)c1)c1ccncc12 [Silmitasertib] + CC(=O)Nc1cccc(-n2c(=O)n(C3CC3)c(=O)c3c(Nc4ccc(I)cc4F)n(C)c(=O)c(C)c32)c1 [Trametinib] (partner 0.02 µM)
Method in brief: as §1

[3] = compound: O=C(O)c1ccc2c(c1)nc(Nc1cccc(Cl)c1)c1ccncc12 [Silmitasertib] + Nc1nc2[nH]cc(CCc3ccc(C(=O)N[C@@H](CCC(=O)O)C(=O)O)cc3)c2c(=O)[nH]1 [Pemetrexed] (partner 0.2 µM)
Method in brief: as §1

Silmitasertib + Olaparib = compound: O=C(O)c1ccc2c(c1)nc(Nc1cccc(Cl)c1)c1ccncc12 [Silmitasertib] + O=C(c1cc(Cc2n[nH]c(=O)c3ccccc23)ccc1F)N1CCN(C(=O)C2CC2)CC1 [Olaparib] (partner 8 µM)
Method in brief: as §1

[4] = compound: O=C(O)c1ccc2c(c1)nc(Nc1cccc(Cl)c1)c1ccncc12 [Silmitasertib] + C[C@@H](Oc1cc(-c2cnn(C3CCNCC3)c2)cnc1N)c1c(Cl)ccc(F)c1Cl [Crizotinib] (partner 1 µM)
Method in brief: as §1

Cell Line | relative viability ([1]; first compound 0.04 µM) | relative viability ([1]; first compound 0.4 µM) | relative viability ([1]; first compound 1.265 µM) | relative viability ([1]; first compound 4 µM) | relative viability ([2]; first compound 0.04 µM) | relative viability ([2]; first compound 0.4 µM) | relative viability ([2]; first compound 1.265 µM) | relative viability ([2]; first compound 4 µM) | relative viability ([3]; first compound 0.04 µM) | relative viability ([3]; first compound 0.4 µM) | relative viability ([3]; first compound 1.265 µM) | relative viability ([3]; first compound 4 µM) | relative viability (Silmitasertib + Olaparib; first compound 0.04 µM) | relative viability (Silmitasertib + Olaparib; first compound 0.4 µM) | relative viability (Silmitasertib + Olaparib; first compound 1.265 µM) | relative viability (Silmitasertib + Olaparib; first compound 4 µM) | relative viability ([4]; first compound 0.04 µM) | relative viability ([4]; first compound 0.4 µM) | relative viability ([4]; first compound 1.265 µM) | relative viability ([4]; first compound 4 µM)
SK-LU-1 | 1.22 | 0.987 | 0.688 | 0.297 | 0.733 | 0.46 | 0.298 | 0.289 | 0.984 | 0.885 | 0.771 | 0.351 | 0.45 | 0.267 | 0.308 | 0.225 | 1.2 | 0.714 | 0.502 | 0.315
SK-MES-1 | 1.18 | 1.13 | 1.11 | 1.09 | 0.589 | 0.477 | 0.535 | 0.469 | 1.03 | 1.02 | 0.763 | 0.339 | 0.777 | 0.623 | 0.289 | 0.207 | 1.1 | 1.05 | 1.06 | 0.656
SW 1573 | 0.805 | 0.679 | 0.855 | 0.682 | 0.529 | 0.54 | 0.478 | 0.439 | 1.11 | 0.875 | 0.89 | 0.697 | 0.552 | 0.457 | 0.428 | 0.427 | 0.952 | 0.707 | 0.734 | 0.625
UMC-11 | 1.04 | 1.08 | 1.1 | 0.678 | 0.73 | 0.65 | 0.353 | 0.403 | 0.951 | 0.785 | 0.774 | 0.553 | 0.335 | 0.298 | 0.301 | 0.26 | 0.604 | 0.683 | 0.56 | 0.324
